No end group written: not given here. *: point of attachment. Cbz = O=C(OCc1ccccc1)*
B1: FKBP domain RYRQR: chimeric protein of Thermus thermophilus FKBP domain and KalbTG recognition sequence RYRQR (protein)
chain: MKVGQDKVVTIRYTLQVEGEVLDQGELSYLHGHRNLIPGLEEALEGREEGEAFQAHVPAEKAYGAGSGGGGRYRQRGGGGGSSGKDLDFQVEVVKVREATPEELLHGHAHHHHHHHH
modifications: synthetic peptide sequence - KalbTG acyl-donor sequence grafted onto the FKBP domain of SlyD; FKBP_domain; acyl-donor_tag; 8xHis_tag

Experiments:
KalbTG [1] = assay: 5-mer peptide array, glutamine-substrate screening with biotinylated amine donor; format: biochemical, Kutzneria albida; details: incorporation of biotinylated amine-donor on 5-mer peptide array
Experimental: To identify potential acyl-donor and amine-donor substrates of the K. albida transglutaminase, high-throughput screening on 5-mer peptide arrays was performed (FIGS. 4A and 4B). An activity of at least 1.65 U/mg for both the SlyD-fused and the mature KalbTG enzymes was confirmed by commercial assay (Zedira MTG-ANiTA-KIT; compared to 4.3 U mg^−1 by the MTG supplied with the kit and a 0.07 U/mg blank value with BSA). The assay used β-casein as a cross-linking substrate and detected deamidation by a glutamate dehydrogenase dependent oxidation of NADPH. Specific recognition motifs were identified by assaying KalbTG with peptide arrays prepared by maskless array synthesis (U.S. Pat. Pub. No 2015/0185216 to Albert et al. filed on 19 Dec. 2014). The efficiency of the transamidation reaction between 1.4 million unique 5-mer peptides and a biotinylated amine donor was quantified on two arrays in parallel and the sequences of the peptides with the highest turnovers were determined (FIG. 4A). The nine best peptides were resynthesized and tested for KalbTG activity in a standalone GLDH-coupled assay. Note that the array signal for the sequence MLAQG (SEQ ID NO:13) is marked not applicable (n. a.) as this sequence was not included on the array. Similarly, measurement of a background signal was only applicable to experiments performed on the array.
For construction of the peptide array, a library of 1,360,732 unique 5-mer peptides was designed by using all combinations of 18 natural amino acids excluding cysteine and methionine, as well as any dimer or a longer repeat of the same amino acid, and any peptide containing a dipeptide selected from HR, RH, HK, KH, RK, KR, HP, and PQ sequences. The library was synthesized in duplicate on the same array by using maskless light-directed peptide array synthesis. Each 5-mer peptide was flanked on both the N-terminus and C-terminus by 3 amino acid-long linkers synthesized by using mixture of glycine and serine having a 3:1 ratio.
To test KalbTG specificity for glutamine-containing substrate, N-(biotinyl)cadaverine was used as a substitute for a lysine substrate to biotinylate glutamine-peptides on a peptide array. KalbTG labeling reaction was performed in 1200 μL 100 mM Tris-HCl pH 8, 1 mM DTT, 50 μM N-(biotinyl)cadaverine, 0.2 ng μl^−1 KalbTG in SecureSeal™ chamber (Grace Bio-Labs) at 37° C. for 45 minutes. After incubation the chamber was removed and the array was washed in 20 mM Tris-HCl, pH7.8, 0.2 M NaCl, 1% SDS for 1 minute followed by a 1 minute wash in 20 mM Tris-HCl. Biotin linked to the array was stained with 0.3 μg ml^−1 Cy5-streptavidin in 10 mM Tris-HCl, pH7.4, 1% alkali-soluble casein, 0.05% TWEEN-20 non-ionic detergent at room temperature for 1 hour. Cy5 fluorescence intensity was measured with a fluorescence scanner at a resolution of 2 μm and a wavelength of 635 nm.

KalbTG [2] = assay: GLDH-coupled assay in solution (NADH oxidation); format: biochemical, Kutzneria albida
Experimental: KalbTG activity was obtained by measuring incorporation of a biotinylated amine-donor on the peptide array and rates of NADH oxidation at 340 nm and 37° C. in the presence of amine-donor substrate (500 μM) in the GLDH-coupled assay using 100 μM each of nine of the best-performing array-selected glutamine-containing substrates and of two S. mobaraensis MTG glutamine-containing substrates. […] Testing of the top sequences in Table 1 confirmed YRYRQ (SEQ ID NO: 1) and RYRQR (SEQ ID NO 14) as the top performing 5-mer substrates, with turnover rates of 3.52±0.08 pmol NADH s^−1 and 3.60±0.12 pmol NADH s^−1, respectively.
With reference to Table 2, KalbTG activity was obtained by measuring incorporation of a biotinylated glutamine-donor and rates of NADH oxidation at 340 nm and 37° C. in the presence of glutamine-donor substrate (200 μM) in the GLDH-coupled assay using 100 μM each of i) six of the top-performing array-selected lysine substrates, ii) cadaverine, and iii) preferred MTG lysine substrate ARSKL (SEQ ID NO:30). […] This is a small but significant increase over cadaverine (3.51±0.12 pmol s^−1) or ARSKL (SEQ ID NO:30) (3.87±0.31 pmol s^−1), a peptide previously established as a preferred MTG lysine donor motif on the peptide array. Additional details on the S. mobaraensis MTG substrate peptide ARSKL (SEQ ID NO:30) can be found in U.S. Provisional Patent Application Ser. No. 62/094,495 to Albert et al. filed on Dec. 19, 2014.
(§1) For the GLDH coupled assay, to determine whether the KalbTG peptides selected in the array assay were also preferred substrates in a solution reaction and to quantify cross-reactivity of KalbTG and S. mobaraensis MTG with various substrates, a continuous glutamate dehydrogenase (GLDH)-coupled assay for S. mobaraensis MTG activity (see Oteng-Pabi, et al., 2013. Analytical biochemistry 441(2): 169-173) was applied.
(§2) For glutamine substrate evaluation, the assay was performed in a transparent 96-well microtiter plate in the presence of 500 μM α-ketoglutarate, 500 μM or 1 mM cadaverine as Amine donor substituting for a lysine-containing peptide, 2 U ml^−1 of glutamate dehydrogenase (GLDH), 500 μM NADH and glutamine-containing substrate peptide (Z-[[…] (SEQ ID NO:77)], Z-[[…] (SEQ ID NO:78)], Z-[[…] (SEQ ID NO:75)], Z-[[…] (SEQ ID NO:79)], Z-[[…] (SEQ ID NO:80)], Z-[[…] (SEQ ID NO:81)], Z-[[…] (SEQ ID NO:82)], Z-[[…] (SEQ ID NO:83)], Z-[[…] (SEQ ID NO:84)], Z-[[…] (SEQ ID NO:85)], Z-[[…] (SEQ ID NO:86)], Z-[[…] (SEQ ID NO:76)] or Z-[[…] (SEQ ID NO:87)]) concentrations ranging between 0 and 1 mM in 200 mM MOPS, 1 mM EDTA pH 7.2 (total volume per well 200 μl).
For amine substrate evaluation, assay conditions were the same as for glutamine substrate evaluation with the exception that 100 μM each of amine substrate (Z-[[…] (SEQ ID NO:88)], Z-[[…] (SEQ ID NO:89)], Z-[[…] (SEQ ID NO:90)], Z-[[…] (SEQ ID NO:91)], Z-[[…] (SEQ ID NO:92)], Z-[[…] (SEQ ID NO:93)], Z-[[…] (SEQ ID NO:94)], Z-[[…] (SEQ ID NO:95)] or cadaverine) and 200 μM glutamine donor (Z-[[…] (SEQ ID NO:75)] or Z-[[…] (SEQ ID NO:76)]) were used.
Reactions were started by the addition of 5 μg ml^−1 of S. mobaraensis MTG or KalbTG and the oxidation of NADH was continuously recorded at 340 nm for 60 minutes using a Biotek Synergy H4 microplate reader, temperature controlled at 37° C., with short shaking intervals before each measurement. After a short lag phase where the GLDH was saturated by transglutaminase-mediated release of ammonia, linear rates of absorbance versus time corresponding to transglutaminase turnover were observed and subjected to Michaelis-Menten kinetic analysis. […]

S. mobaraensis MTG = assay: GLDH-coupled assay in solution (NADH oxidation); format: biochemical, Streptomyces mobaraensis; details: enzyme MTG; glutamine-donor 0 to 1 mM, cadaverine 1 mM, 37° C.
Experimental: as §1, §2
Reactions were started by the addition of 5 μg ml^−1 of S. mobaraensis MTG or KalbTG and the oxidation of NADH was continuously recorded at 340 nm for 60 minutes using a Biotek Synergy H4 microplate reader, temperature controlled at 37° C., with short shaking intervals before each measurement. After a short lag phase where the GLDH was saturated by transglutaminase-mediated release of ammonia, linear rates of absorbance versus time corresponding to transglutaminase turnover were observed and subjected to Michaelis-Menten kinetic analysis. Rates of absorbance in millioptical density units per minute (mOD min^−1) were converted into molar rates of NADH turnover (pmol s^−1) using the formula of Equation 1 (previously determined by an NADH standard curve): Turnover rate=|Absorbance rate|*1.111 (Eq. 1)

KalbTG [3] = assay: Cy3 labeling of Q-tagged SlyD/FKBP scaffold, SDS-PAGE; format: biochemical, Kutzneria albida; details: ten-fold excess KalbTG K-tag-Cy3, substrate to enzyme ratio 72:1, after 15 minutes
Description: Next, the array and in-solution data were applied to perform site-specific labeling on protein substrates. The molecular chaperone SlyD is a useful scaffold for labeling approaches as epitope-containing loops can be grafted onto the FKBP domain for presentation to binders or enzymes (PCT App. Pub. No. WO 2012/150321 A1 to Andres et al.). A chimeric protein consisting of the Thermus thermophilus FKBP domain and the KalbTG recognition sequence RYRQR (SEQ ID NO:14) was produced. Labeling with a ten-fold excess of KalbTG K-tag-Cy3 and a substrate to enzyme ratio of 72:1 afforded approximately 70% yield of a labeled protein species after 15 minutes (FIG. 6A). This yield remained constant over a time-course of 60 minutes. […] The molecular weight shift from 13 kDa to 19 kDa was observed on the SDS-PAGE gel, corresponding exactly to the incorporation of a single 6 kDa label molecule. […]
If not noted otherwise, labeling reactions were performed for 15 minutes at 37° C. in the presence of 72 μM substrate protein, 720 μM label peptide and 1 μM transglutaminase in 200 mM MOPS pH 7.2 and 1 mM EDTA. […] Samples were taken between incubation steps and analyzed by SDS-PAGE, in-gel fluorescence (BioRad ChemiDoc gel documentation system, Cy3 and Cy5 LED and filter sets). […] The mixture was filtered (0.2 μm spin filter) and analyzed by LC-MS with UV detection at 214 nm and 305 nm.

[4] = enzyme KalbTG, glutamine-donor 0 to 1 mM, cadaverine 1 mM, 37° C.

KalbTG, sequence (as listed by the source): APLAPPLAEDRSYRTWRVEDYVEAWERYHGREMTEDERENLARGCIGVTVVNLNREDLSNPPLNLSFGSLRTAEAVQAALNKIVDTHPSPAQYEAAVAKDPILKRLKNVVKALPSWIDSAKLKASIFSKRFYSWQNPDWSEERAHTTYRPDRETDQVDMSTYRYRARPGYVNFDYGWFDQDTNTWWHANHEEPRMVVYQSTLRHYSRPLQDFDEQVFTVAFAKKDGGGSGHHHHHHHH

Row | Molecule | Array signal (log2) (KalbTG [1]) | reactivity of KalbTG towards substrate (KalbTG [2]; kinetics, varying substrate concentrations) | Km (S. mobaraensis MTG) | Vmax (S. mobaraensis MTG) | kcat (S. mobaraensis MTG) | Reaction rate in solution (KalbTG [2]; 100 μM glutamine-containing substrate, 500 μM amine-donor substrate, NADH oxidation at 340 nm, 37° C.) | Km (KalbTG [2]; enzyme KalbTG) | Km (KalbTG [2]; [4]) | Vmax (KalbTG [2]; [4]) | kcat (KalbTG [2]; [4]) | yield of labeled protein species / incorporation of label (KalbTG [3])
1 | DYALQ (Cbz-DYALQ) [preferred S. mobaraensis MTG glutamine-containing substrate, reference compound] | 7.22 log2 | completely unreactive | 847 ± 138 µM | 36.66 ± 3.33 pmol/s | 1.39 S^−1 | – | – | – | – | – | –
2 | YRYRQ (Cbz-YRYRQ) [KalbTG glutamine-donor (Q-tag) 5-mer] | 8.99 log2 | – | 644 ± 58.4 µM | 21.50 ± 1.00 pmol/s | 0.93 S^−1 | 3.52 ± 0.08 pmol/s | 2000 µM | 2150 ± 291 µM | 73.18 ± 7.27 pmol/s | 1.92 S^−1 | –
3 | B1 | – | – | – | – | – | – | – | – | – | – | approximately 70%

Source: patent US11054425B2, “System and method for identification and characterization of transglutaminase species” (Roche Sequencing Solutions, Inc., priority 2014, dated 2021)
